In patent US20140378513A1, “USE OF FUNGICIDES IN LIQUID SYSTEMS” (priority 2011, published 2014):

Assays:
[1] = tested on: microalgae; experiment: Ranges of microalgae toxicity (serial dilution of fungicide in growing culture); conditions: range in which fungicide begins to show growth effects on microalgae
Excerpt: The present disclosure provides for the introduction of fungicides at an effective concentration. Effective concentrations may be determined according to manufacturer's instructions or may be determined empirically. An effective concentration of a fungicide is not toxic to the microalgae being cultured in the liquid system. Methods to determine toxicity are known in the art and include serial dilutions of a test fungicide in a growing liquid culture of microalgae. One of skill in the art would understand that different microalgae may have different ranges of toxicity that may be determined by growth of a microalga in the presence of a serial dilution of a fungicide.
Algae are screened for sensitivity to chemicals by preparing 180 ml of a log phase culture. The log phase culture is transferred into a 96 well microtiter plate at an absorbance at 750 nm (OD750 or A750) of ˜0.2. Twenty microliters of media is provided into the top row as a negative control, the middle six rows receive a 20 microliter dilution, which is a 10 fold dilution of the chemical at each transfer, of the chemical across an appropriate concentration gradient, and the bottom row receives 20 microliter of the solvent used to solubilize the pesticide alone as a control. The total volume per well is 200 μl. Each chemical is tested in triplicate. The growth of the algae is tracked daily by measuring the A750. After 8 days, the growth rate of the algae is measured by fitting the growth curve to a log model and deriving the maximum growth rate (r). The impact of the chemical is calculated by comparing the r of the algae at various dilutions of the pesticide to the control.

[2] = tested on: Scenedesmus dimorphus; experiment: Algae sensitivity screen, 96 well, growth rate by A750 over 8 days; assay type: cell-based; conditions: log phase culture, 10 fold dilutions
Method: (§1) The total volume per well is 200 μl. Each chemical is tested in triplicate.

[3] = tested on: Scenedesmus species; experiment: as above; assay type: cell-based
Method: as §1

[4] = tested on: Pest in infected Scenedesmus dimorphus culture; experiment: Fungicide efficacy on pest control in infected microalgae culture; assay type: cell-based; conditions: for positive efficacy in a first trial confirmed in a second trial: Table 6; for Rating: rating scale of 0 to 3 by percent efficacy
Excerpt: Failure to treat an infected culture results in the collapse and loss of the microalgae culture. […] Test fungicides are graded on a rating scale of 0 to 3 where a score of 0 represents an efficacy of between 0 and 25%, a score of 1 represents an efficacy of between 26 and 50%, a score of 2 represents an efficacy of between 51 and 75% and a score of 3 represents an efficacy of between 76 and 100%.

[5] = tested on: Desmid species; experiment: Algae sensitivity screen, 96 well, growth rate by A750 over 8 days; assay type: cell-based
Method: as §1

[6] = log phase culture, 10 fold dilutions, 8 days
[7] = Tetradesmus dimorphus, read-out: Scenedesmus dimorphus efficacy
[8] = log phase culture, 10 fold dilutions

Molecule: OC(c1ccc(Cl)cc1)(c1cncnc1)c1ccccc1Cl (stereo not shown) [fenarimol, (2-chlorophenyl)-(4-chlorophenyl)-pyrimidin-5-ylmethanol]
- Ranges of Microalgae toxicity [1]: 0.0489-0.195 ppm
- Scenedesmus dimorphus toxicity [2]: 0.0489-0.195 ppm
- Scenedesmus species toxicity [3, 6]: 0.0489-0.195 ppm
- positive efficacy in a first trial confirmed in a second trial [4]: not confirmed
- activity at 2 ppm [4, 7]: 31%
- Rating [4]: 0 (a score of 0 represents an efficacy of between 0 and 25%)

Molecule: CC1(C(=O)Nc2ccc(O)c(Cl)c2Cl)CCCCC1 [fenhexamid]
- Ranges of Microalgae toxicity [1]: 15.63-62.5 ppm
- Desmid species toxicity ([5]; Desmid species): 15.63-62.5 ppm
- Rating [4]: 0 (a score of 0 represents an efficacy of between 0 and 25%)

Molecule: CC(Cc1ccc(C(C)(C)C)cc1)CN1CCCCC1 (stereo not shown) [fenpropidin, 1-[3-(4-tert-butylphenyl)-2-methylpropyl]piperidine]
- Ranges of Microalgae toxicity [1]: 0.00195-1.953 ppm
- Scenedesmus dimorphus toxicity [2]: 0.00195-0.0078 ppm
- Scenedesmus species toxicity ([3]; cell marked (ppb)): 0.488-1.953 ppb
- Desmid species toxicity [5, 8]: 0.031-0.125 ppm
- positive efficacy in a first trial confirmed in a second trial [4]: not confirmed
- activity at 0.8 ppm [4, 7]: 18.5%
- Rating [4]: 0 (a score of 0 represents an efficacy of between 0 and 25%)

Molecule: CCO[PH](=O)O [fosetyl-aluminum (100 mg), fosetyl-aluminum]
- Rating [4]: 0 (a score of 0 represents an efficacy of between 0 and 25%)

Molecule: CO/N=C(/C(=O)OC)c1ccccc1COc1ccccc1C [kresoxim-methyl]
- Rating [4]: 0 (a score of 0 represents an efficacy of between 0 and 25%)

Molecule: COCC(=O)N(c1c(C)cccc1C)C(C)C(=O)OC (stereo not shown) [metalaxyl]
- Rating [4]: 0 (a score of 0 represents an efficacy of between 0 and 25%)

Molecule: O=C(Nc1ccccc1)N(Cc1ccc(Cl)cc1)C1CCCC1 [pencycuron]
- Ranges of Microalgae toxicity [1]: 0.781-12.5 ppm
- Scenedesmus dimorphus toxicity [2]: 3.125-12.5 ppm
- Scenedesmus species toxicity [3, 6]: 0.781-3.125 ppm
- Desmid species toxicity [5, 8]: 3.125-12.5 ppm
- Rating [4]: 0 (a score of 0 represents an efficacy of between 0 and 25%)

Molecule: CCCOC(=O)NCCCN(C)C [propamocarb]
- Ranges of Microalgae toxicity [1]: 3.906-62.5 ppm
- Scenedesmus dimorphus toxicity [2]: 15.63-62.5 ppm
- Scenedesmus species toxicity [3, 6]: 3.906-15.63 ppm
- Desmid species toxicity [5, 8]: 3.906-15.625 ppm
- Rating [4]: 0 (a score of 0 represents an efficacy of between 0 and 25%)

Molecule: CCCC1COC(Cn2cncn2)(c2ccc(Cl)cc2Cl)O1 (stereo not shown) [propiconazole, 1-[[2-(2,4-dichlorophenyl)-4-propyl-1,3-dioxolan-2-yl]methyl]-1,2,4-triazole]
- Scenedesmus dimorphus Efficacy confirmation ([4]; @ 0.8 ppm, second trial): 18.6% @ 0.8 ppm
- activity at 0.32 ppm [4, 7]: 30.6%
- Rating [4]: 0 (a score of 0 represents an efficacy of between 0 and 25%)

Molecule: OC(Cc1ccccc1Cl)(Cn1nc[nH]c1=S)C1(Cl)CC1 (stereo not shown) [prothioconazole]
- Rating [4]: 0 (a score of 0 represents an efficacy of between 0 and 25%)

Molecule: CC(C)(C)C(O)(CCc1ccc(Cl)cc1)Cn1cncn1 (stereo not shown) [tebuconazole]
- Rating [4]: 0 (a score of 0 represents an efficacy of between 0 and 25%)

Molecule: COC(=O)NC(=S)Nc1ccccc1NC(=S)NC(=O)OC [thiophanate-methyl, methyl N-[[2-(methoxycarbonylcarbamothioylamino)phenyl]carbamothioyl]carbamate]
- activity at 5 ppm [4, 7]: 9.6%
- Rating [4]: 0 (a score of 0 represents an efficacy of between 0 and 25%)

Molecule: CON=C(C(=O)OC)c1ccccc1CON=C(C)c1cccc(C(F)(F)F)c1 [trifloxystrobin]
- Rating [4]: 0 (a score of 0 represents an efficacy of between 0 and 25%)

Molecule: O=CNC(N1CCN(C(NC=O)C(Cl)(Cl)Cl)CC1)C(Cl)(Cl)Cl (stereo not shown) [triforin]
- Rating [4]: 0 (a score of 0 represents an efficacy of between 0 and 25%)

Molecule: dinocap
- Ranges of Microalgae toxicity [1]: 0.0039-0.0625 ppm
- Scenedesmus dimorphus toxicity [2]: 0.0039-0.0156 ppm
- Scenedesmus species toxicity [3, 6]: 0.0156-0.0625 ppm
- Rating [4]: 0 (a score of 0 represents an efficacy of between 0 and 25%)

Molecule: mancozeb
- Rating [4]: 0 (a score of 0 represents an efficacy of between 0 and 25%)
